Experimental data taken from paper PMC5133935, “Hydrostatin-TL1, an Anti-Inflammatory Active Peptide from the Venom Gland of Hydrophis cyanocinctus in the South China Sea” (International Journal of Molecular Sciences, 2016).
Entries after “also recorded” stand apart in the source; their conditions may differ. No end group written: not given here.

Assays:
[1] = test system: L929 cells; assay: MTT assay, protection from TNF-α-mediated cytotoxicity; assay type: cell-based, mouse; conditions: H-TL1 1 to 1000 nM; hrTNF-α 20 ng/mL + 0.2 μg/mL actinomycin D; 18–20 h, 37 °C; MTT 490 nm; n = 5
Protocol: (§1) We used the L929 cell line, which is commonly chosen by researchers, to evaluate the effects of H-TL1 on TNF-α-mediated cytotoxicity. The cells were treated with TNF-α and 0.2 μg/mL actinomycin D in the presence of graded concentrations of H-TL1. Cell viability was evaluated using MTT assay. […] Furthermore, H-TL1 was not cytotoxic against L929 cells at 100 μM (data not shown), which far exceeds the concentration of H-TL1 used in the in vitro assays.
(§2) The H. cyanocinctus specimens were captured during September 2005 in the South China Sea near Guangdong Province, People’s Republic of China. After collection, the snakes were killed, and the venom glands were isolated and immediately frozen in liquid nitrogen until use. HEK-293 human embryonic kidney and L929 mouse fibroblast cell lines were obtained from ATCC and cultured in Dulbecco’s modified Eagle’s medium (DMEM, Sigma-Aldrich, St. Louis, MO, USA) containing 10% (v/v) heat-inactivated fetal bovine serum (FBS, Gibco, BRL, Grand Island, NY, USA) at 37 °C in an atmosphere of 5% CO2. […]
For MTT cell viability assay, L929 cells were seeded onto a 96-well plate and cultured for 12 h. […] Following incubation at 37 °C for 18–20 h, MTT solution was added, followed by incubation at 37 °C for 4 h, and then the absorbance was determined at 490 nm. […]

[2] = test system: NF-κB and MAPK activation in colonic tissue of DSS mice; assay: Western blot of colonic tissue in DSS-induced colitis; assay type: in vivo, mouse; conditions: H-TL1 vs. vehicle, p-ERK (Thr202/Tyr204), p-JNK (Thr183/Tyr185), p-IκB (Ser32/36)
Protocol: For Western blotting, the cell or tissue specimen extracts were resolved in a 10% SDS-PAGE gel, and then the separated proteins were transferred to a nitrocellulose filter membrane. The antigens were detected by using specific antibodies against total and phosphorylated IκB, p38, ERK, and JNK followed by incubation with the respective secondary antibodies. GAPDH was simultaneously detected as the control to compare the protein loading in each lane. The mouse monoclonal anti-IκB, mouse monoclonal anti-p-IκB (Ser32/36), rabbit monoclonal anti-ERK, and rabbit monoclonal anti-p-ERK (Thr202/Tyr204) antibodies were from Cell Signaling Technologies (Beverly, MA, USA). The mouse polyclonal anti-p-p38 (Thr180/Tyr182), rabbit polyclonal anti-p38, rabbit monoclonal anti-p-JNK (Thr183/Tyr185), and mouse monoclonal anti-JNK antibodies were from Thermo Fisher Scientific (Rockford, IL, USA). The rabbit monoclonal anti-GAPDH antibody was from Santa Cruz Biotechnology (Santa Cruz, CA, USA), and the fluorescent-labeled secondary antibodies were from Li-COR Biosciences (Lincoln, NE, USA).
To induce colitis, 6–8 week old male BALB/c mice were administered 2.5% DSS solution in their drinking water for 7–8 consecutive days, ad libitum. […] DAI was monitored during the entire experiment and was assessed according to the method described in Table 1.

[3] = test system: L929 cells; assay type: cell-based, mouse; conditions: H-TL1 100 μM; data not shown
Protocol: as §1
as §2, with “CO2. The BLT5403 E. coli strain (used as the phage host strain) was from Novagen (Merck) and was cultured at 37 °C for propagation. The specific pathogen-free (SPF) male BALB/c and C57BL/6 mice (both 6–8 weeks old), weighing 20 ± 2 g were purchased from Shanghai SLAC Laboratory Animal Co., Ltd. (Shanghai, China).” for “CO2.”

[4] = test system: TNF-α/TNFR1; assay: SPR analysis, TNF-α binding to chip-immobilized TNFR1; parameters: species or system human; conditions: H-TL1 0.5 and 1 μM; hrTNF-α 100 nM; sTNFR1 on CM5 chip, BIAcore T200; 360 s association, 200 s dissociation
Protocol: The T7Select1-2b display vector, T7 select primers, blocking reagent, and elution buffer were purchased from Novagen (Merck, Kenilworth, NJ, USA). […] DSS (36–50 kDa) was bought from MP Biomedicals (Solon, OH, USA). MTT, actinomycin D, and LPS were purchased from Sigma-Aldrich (St. Louis, MO, USA).
sTNFR1 (100 μg/mL) was covalently immobilized onto a CM5 sensor chip by the BIAcore T200 system (Biacore, GE Healthcare) following manufacturer’s instructions. To determine whether H-TL1 inhibits the binding of TNF-α to TNFR1, hrTNF-α was diluted in running buffer at 100 nM with or without different concentrations of H-TL1 (0.1, 0.5, and 1 μM) and subsequently passed over the sTNFR1-immobilized chip for 360 s, followed by dissociation for 200 s. The response unit indicates binding ability.

[5] = test system: mRNA expression of pro-inflammatory cytokines in colon tissue of DSS mice; assay: Real-time PCR, cytokine mRNA in DSS-induced colitis; assay type: in vivo, mouse; conditions: H-TL1 1 mg/kg; DSS induced 1.73- to 41-fold increases; n = 3
Protocol: Total RNA was extracted from colon tissue specimens or cells using Trizol reagent (Takara) according to the manufacturer’s instructions and was then reverse transcribed using random primers. Real-time PCR was performed on a StepOne Real-Time PCR System (Applied Biosystems, Foster City, CA, USA) to analyze the mRNA expression levels of IL-8, TNF-α, IL-1β, IL-6, VCAM-1, and ICAM-1. The relative fold changes of target gene expression were comparatively quantified by the 2^−ΔΔCt method. GAPDH was chosen as the internal control gene, and samples without treatment were designated as the comparing reference. Primers used in this study were based on published sequences.
To induce colitis, 6–8 week old male BALB/c mice were administered 2.5% DSS solution in their drinking water for 7–8 consecutive days, ad libitum. Importantly, 30–40 kDa DSS was used to establish the animal model in this study because it is known to induce more severe colitis than 5 and 500 kDa DSS [37]. The mice were concomitantly administered H-TL1 (0.5 or 1 mg/kg) once daily for 7–8 consecutive days by intraperitoneal injection. Establishment of the DSS-induced colitis was evidenced by an increase in DAI, with associated weight loss, loose stool consistency, and presence of blood in the feces. DAI was monitored during the entire experiment and was assessed according to the method described in Table 1.

Substance: ATSKPSLKC-OH [H-TL1]
- inhibition of TNF-α-induced L929 cell death [1]: inhibited TNF-α-induced L929 cell death in a concentration-dependent manner; also recorded: improved survival in TNF-α-treated L929 cells
- activation (phosphorylation) of JNK, ERK, and IκB in colonic tissue [2]: JNK, ERK, and IκB were activated; however, this effect was inhibited by H-TL1 treatment
- cytotoxicity against L929 cells [3]: not cytotoxic
- attenuation of SPR response of TNF-α to TNFR1 [4]: inhibits the association of TNF-α with sensor chip-immobilized TNFR1; also recorded: the elicited response was markedly attenuated
- mRNA expression of TNF-α, IFN-γ, IL-1β, and IL-6 in DSS colitis [5]: significantly reduced these effects
